According to patent publication US6677371B1, “4-oxybenzopyran derivative” (Nissan Chemical Industries, Ltd., priority 1999, dated 2004):

melting point: 123.5 to 127 °C
Compound: CC(=O)Nc1cc2c(cc1[N+](=O)[O-])OC(C)(C)[C@@H](O)[C@@H]2OCCc1ccccc1 (relative stereo) [Synthesis example 2, Trans-6-acetylamino-3,4-dihydro-2,2-dimethyl-7-nitro-4-(2-phenylethoxy)-2H-1-benzopyran-3-ol]
